In brackets after ≈: the same amount, converted by molar mass. Bounds are passed on as bounds.

The test system of data set [1] is Staphylococcus aureus. Description: Antibacterial activity against methicillin-susceptible Staphylococcus aureus ATCC 29213 incubated for overnight measured after 20 to 24 hrs by broth microdilution method. It counts as functional. A general note: In broth dilution the organism is exposed to a series of concentrations in liquid medium.
The test system of data set [2] is Staphylococcus aureus. Description: Antibacterial activity against methicillin-resistant Staphylococcus aureus ATCC 43300 incubated for overnight measured after 20 to 24 hrs by broth microdilution method. It counts as functional.
Data set [3] concerns Staphylococcus aureus. Description: Antibacterial activity against methicillin-susceptible Staphylococcus aureus M056 incubated for overnight measured after 20 to 24 hrs by broth microdilution method. It counts as functional.
Data set [4] has as its system Staphylococcus aureus. Nature of the data set: Antibacterial activity against methicillin-resistant Staphylococcus aureus M013 incubated for overnight measured after 20 to 24 hrs by broth microdilution method. Type of data set: functional.
Data set [5] concerns Staphylococcus aureus. Description: Antibacterial activity against methicillin-resistant Staphylococcus aureus N043 incubated for overnight measured after 20 to 24 hrs by broth microdilution method. It counts as functional.
For data set [6], the system named is Staphylococcus aureus. Description: Antibacterial activity against methicillin-resistant Staphylococcus aureus C217 incubated for overnight measured after 20 to 24 hrs by broth microdilution method. It counts as functional.
Data set [7] concerns Staphylococcus aureus. Description: Antibacterial activity against methicillin-resistant Staphylococcus aureus Y069 incubated for overnight measured after 20 to 24 hrs by broth microdilution method. It counts as functional.
For data set [8], the system named is Staphylococcus aureus. Nature of the data set: Antibacterial activity against methicillin-resistant Staphylococcus aureus L166 incubated for overnight measured after 20 to 24 hrs by broth microdilution method. It counts as functional.
The test system of data set [9] is Staphylococcus aureus. Description: Antibacterial activity against methicillin-resistant Staphylococcus aureus Z234 incubated for overnight measured after 20 to 24 hrs by broth microdilution method. It counts as functional.
Data set [10] relates to Staphylococcus aureus. Description: Antibacterial activity against methicillin-resistant Staphylococcus aureus 4N216 incubated for overnight measured after 20 to 24 hrs by broth microdilution method. It counts as functional.
Data set [11] concerns Staphylococcus aureus. Nature of the data set: Antibacterial activity against vancomycin-intermediate and daptomycin-nonsusceptible methicillin-resistant Staphylococcus aureus Z172 incubated for overnight measured after 20 to 24 hrs by broth microdilution method. It counts as functional.
The subject of data set [12] is Enterococcus faecalis. Nature of the data set: Antibacterial activity against vancomycin-resistant Enterococcus faecalis ATCC 51299 incubated for overnight measured after 20 to 24 hrs by broth microdilution method. It counts as functional.
For another data set, the system named is Escherichia coli. Nature of the data set: Antibacterial activity against Escherichia coli ATCC 25922 incubated for overnight measured after 20 to 24 hrs by broth microdilution method. It counts as functional.
The next data set relates to Pseudomonas aeruginosa. Nature of the data set: Antibacterial activity against Pseudomonas aeruginosa ATCC 27853 incubated for overnight measured after 20 to 24 hrs by broth microdilution method. It counts as functional.
In the next data set the test system is Klebsiella pneumoniae. Nature of the data set: Antibacterial activity against Klebsiella pneumoneae ATCC 700603 incubated for overnight measured after 20 to 24 hrs by broth microdilution method. Type of data set: functional.
The subject of another data set is Acinetobacter baumannii. Nature of the data set: Antibacterial activity against Acinetobacter baumannii ATCC 19606 incubated for overnight measured after 20 to 24 hrs by broth microdilution method. It counts as functional.
Data set [13] is described as follows: Cmax in ICR mouse plasma at 10 mg/kg, iv measured after 20 mins by LC-MS/MS analysis. It counts as ADME, organism-based. On the set-up: dose 10 mg/kg, route intravenous.
Data set [14] is described as follows: Half life in ICR mouse plasma at 10 mg/kg, iv by LC-MS/MS analysis. Type of data set: ADME, organism-based.
A short description of data set [15]: Clearance in ICR mouse plasma at 10 mg/kg, iv by LC-MS/MS analysis. It counts as ADME, organism-based.
Data set [16] can be described thus: Volume of distribution at steady state in ICR mouse plasma at 10 mg/kg, iv by LC-MS/MS analysis. The settings on record: read-out: Vdss. Type of data set: ADME, organism-based.
Data set [17] can be described thus: AUC (0 to 24 hrs) in ICR mouse plasma at 10 mg/kg, iv by LC-MS/MS analysis. It counts as ADME, organism-based. On the set-up: dose 10 mg/kg, time < 24 hr, route intravenous.
For data set [18], the system named is Mus musculus. Description: Acute toxicity in ICR mouse assessed as increase in body weight at 100 mg/kg, iv measured daily for 2 weeks. It counts as organism-based. The settings on record: in vivo, 336 h.
For data set [19], the system named is Mus musculus. Nature of the data set: Acute toxicity in ICR mouse assessed as increase in survival at 100 mg/kg, iv measured after 2 weeks. It counts as organism-based. The settings on record: in vivo, 336 h.
The test system of data set [20] is Staphylococcus aureus. Description: Antibacterial activity against methicillin-resistant Staphylococcus aureus 4N216 infected in ICR mouse assessed as mouse survival rate at 20 mg/kg, iv administered as single dose 30 mins post-infection measured day 7 post infection relative to control. The settings on record: 4N216, iv. Type of data set: functional.
Data set [21] deals with Staphylococcus aureus. Description: Potency index, ratio of vanomycin MIC to compound MIC against vancomycin-intermediate and daptomycin-nonsusceptible methicillin-resistant Staphylococcus aureus Z172. Type of data set: functional.
Data set [22] has as its system Enterococcus faecalis. Description: Potency index, ratio of […] MIC to compound MIC against vanomycin-resistant Enterococcus faecalis ATCC 51299.

In the case of `Oc1ccccc1CCNCC(O)Cn1c2ccc(Br)cc2c2cc(Br)ccc21` (centres undefined), the minimum inhibitory concentration (MIC) against Staphylococcus aureus [1] and against Staphylococcus aureus [2] was 1 to 2 µg/mL (≈ 1.93 to 3.86 µM) each time.

Regarding `OC(CNCCc1cccc(F)c1)Cn1c2ccc(Br)cc2c2cc(Br)ccc21` (centres undefined), the MIC with Staphylococcus aureus [1] and in the data set with Staphylococcus aureus [2] was 1 to 2 µg/mL (≈ 1.92 to 3.84 µM) throughout.

In the case of `O[C@@H](CNCCc1c[nH]c2ccc(Cl)cc12)Cn1c2ccc(Br)cc2c2cc(Br)ccc21`, the MIC with Staphylococcus aureus [1] and against Staphylococcus aureus [2] was 1 µg/mL (≈ 1.74 µM) each time.

As for `Oc1ccc(CCNCC(O)Cn2c3ccc(Br)cc3c3cc(Br)ccc32)cc1O` (centres undefined), the MIC with Staphylococcus aureus [1] and against Staphylococcus aureus [2] was 16 µg/mL (≈ 29.9 µM) in each case.

As to `OC(CNCCc1cccc(F)c1)Cn1ccc2cc(Br)ccc21` (centres undefined), the MIC with Staphylococcus aureus [1] was 16 to 32 µg/mL (≈ 40.9 to 81.8 µM); against Staphylococcus aureus [2], 8 µg/mL (≈ 20.4 µM).

As for `O[C@H](CNCCc1c[nH]c2ccc(Cl)cc12)Cn1c2ccc(Br)cc2c2cc(Br)ccc21`, the MIC against Staphylococcus aureus [1] and in the data set with Staphylococcus aureus [2] was 1 µg/mL (≈ 1.74 µM) each time.

In the case of `OC(CNc1cc(Cl)nc(Cl)n1)Cn1c2ccc(Br)cc2c2cc(Br)ccc21` (centres undefined), the minimal inhibitory concentration (MIC) against Staphylococcus aureus [1] and against Staphylococcus aureus [2] was > 32 µg/mL each time.

`OC(CNCCc1c[nH]c2cc(F)ccc12)Cn1c2ccccc2c2ccccc21` (centres undefined): the minimal inhibitory concentration (MIC) in the data set with Staphylococcus aureus [1] and in the data set on Staphylococcus aureus [2] was 4 µg/mL (≈ 9.96 µM) in each case.

Regarding `O[C@H](CNCCc1c[nH]c2cc(F)ccc12)Cn1c2ccc(Cl)cc2c2cc(Cl)ccc21`, the MIC in the data set with Staphylococcus aureus [1] and in the data set on Staphylococcus aureus [2] was 0.5 to 1 µg/mL (≈ 1.06 to 2.13 µM) each time.

`OC(CNCCc1c[nH]c2cc(F)ccc12)Cn1c2ccc(Cl)cc2c2cc(Cl)ccc21` (racemic): the minimal inhibitory concentration (MIC) against Staphylococcus aureus [1] is 0.5 to 1 µg/mL (≈ 1.06 to 2.13 µM); in the data set with Staphylococcus aureus [2] it was 0.5 to 1 µg/mL (≈ 1.06 to 2.13 µM); in the data set on Staphylococcus aureus [3], 1 µg/mL (≈ 2.13 µM); against Staphylococcus aureus [4], 1 µg/mL (≈ 2.13 µM); in the data set with Staphylococcus aureus [5], 1 µg/mL (≈ 2.13 µM); with Staphylococcus aureus [6] it was 1 µg/mL (≈ 2.13 µM). The MIC came to 1 µg/mL (≈ 2.13 µM) against Staphylococcus aureus [7]; 1 µg/mL (≈ 2.13 µM) against Staphylococcus aureus [8]; 1 µg/mL (≈ 2.13 µM) against Staphylococcus aureus [9]; 0.5 µg/mL (≈ 1.06 µM) with Staphylococcus aureus [10]; 1 µg/mL (≈ 2.13 µM) against Staphylococcus aureus [11]; 1 µg/mL (≈ 2.13 µM) with Enterococcus faecalis [12]. The MIC with Escherichia coli was 4 µg/mL (≈ 8.5 µM); against Pseudomonas aeruginosa, > 64 µg/mL; in the data set with Klebsiella pneumoniae, > 64 µg/mL; in the data set on Acinetobacter baumannii it was 8 µg/mL (≈ 17 µM). Moreover, in data set [13], the Cmax came to 29700 ng/mL. The compound further had a half-life in data set [14] of 618 min. This compound also registered a clearance in [15] of 6.9 mL/min/kg. Further, in data set [16], the Vd was 4.9 L/kg. This compound showed an AUC(0-t) at 24 h in data set [17] of 20500 ng·h/mL. Further, the Activity entry in the data set with Mus musculus [18] and in the data set on Mus musculus [19] was “Non-Toxic” throughout. In addition, in the data set on Staphylococcus aureus [20], the survival at 20 mg/kg was 75%. Also, the Ratio in the data set with Staphylococcus aureus [21] is recorded as 4 - 16; in the data set on Enterococcus faecalis [22] it was 4 - 18.

In general, MIC refers to the lowest concentration found to suppress growth. High values mean weaker potency, low ones greater potency. For orientation: Cmax means the highest concentration seen after dosing. For orientation: half-life means the time needed for the level to fall by half in the phase considered. A low value points to fast loss. A word on the clearance: it is the rate of elimination divided by the concentration. Low readings indicate a low capacity for elimination, high ones a high capacity for elimination. In general, AUC(0-t) refers to the area under the concentration-time curve up to a stated or last time point.

(Values after ChEMBL document CHEMBL3868635, “Bromomethylthioindole Inspired Carbazole Hybrids as Promising Class of Anti-MRSA Agents” (ACS Med Chem Lett, 2016).)
